{"source": "ChEMBL document CHEMBL5518161", "about": "“Mitochondria-targeted pentacyclic triterpene NIR-AIE derivatives for enhanced chemotherapeutic and chemo-photodynamic combined therapy” (Eur J Med Chem, 2024)", "key": {"[1]": {"tested_on": "B16-F0", "test": "Antitumor activity against mouse B16-F0 cells xenografted in C57BL/6J male mouse model assessed as reduction in tumor growth at 1 mg/ml, IT(Intratumoral) measured every two days upto 14 days with 150 mW/cm2 white light irradiation for 30 mins by vernier caliper based analysis", "assay_type": "functional", "conditions": "time <= 14.0 day"}, "[2]": {"tested_on": "Cell membrane", "test": "Induction of mitochondrial membrane potential loss in human HeLa cells assessed as decrease in red fluorescence at 30 uM pre-incubated for 3 hrs followed by incubation at dark condition for 15 hrs by inverted laser confocal microscopy analysis", "assay_type": "cell membranes", "conditions": "time 18.0 hrs"}, "[3]": {"tested_on": "HeLa", "test": "Phototoxicity against human HeLa cells assessed as survival rate pre-incubated for 3 hrs followed by 20mW/cm2 white light irradiation and measured after 10 to 30 mins by CCK-8 method relative to control", "assay_type": "functional", "conditions": "time 190-210 min"}, "[4]": {"tested_on": "HeLa", "test": "Phototoxicity against human HeLa cells assessed as survival rate at 10 uM incubated for 3 hrs under dark condition by CCK-8 method relative to control", "assay_type": "functional", "conditions": "light or radiation study, read-out: Survival"}, "[5]": {"tested_on": "Cell membrane", "test": "Induction of mitochondrial membrane potential loss in human HeLa cells assessed as decrease in red fluorescence at 1 uM pre-incubated for 3 hrs followed by incubation at dark condition for 15 hrs by inverted laser confocal microscopy analysis", "assay_type": "cell membranes", "conditions": "time 18.0 hrs"}, "[6]": {"test": "Toxicity in C57BL/6J mouse assessed as effect on body weight change at 1 mg/ml, IT(Intratumoral) measured after 14 days with 150 mW/cm2 white light irradiation for 30 mins", "conditions": "in vivo, other, 336 h, time 14 day"}, "[7]": {"tested_on": "HeLa", "test": "Phototoxicity against human HeLa cells assessed as reduction in cell viability pre-incubated for 3 hrs followed by 20mW/cm2 white light irradiation and measured after 20 mins by CCK-8 method", "assay_type": "functional, cell-based", "conditions": "light or radiation study"}, "[8]": {"tested_on": "HeLa", "test": "Induction of apoptosis in human HeLa cells assessed as increase in bax expression at 1 uM preincubated for 6 hrs followed by 20 mW/cm2 white light irradiation for 20 mins by Western blot analysis", "assay_type": "functional, cell-based", "conditions": "time 380.0 min"}, "[9]": {"tested_on": "HeLa", "test": "Induction of apoptosis in human HeLa cells pre-incubated for 3 hrs followed by white light irradiation for 10 mins and measured after 6 hrs by Annexin V-FITC/PI staining based flow cytometry analysis", "assay_type": "functional, cell-based", "conditions": "dose 10-30 µM, time 550.0 min"}, "[10]": {"tested_on": "HeLa", "test": "Phototoxicity against human HeLa cells assessed as reduction in cell viability incubated for 3 hrs under dark condition by CCK-8 method", "assay_type": "functional, cell-based", "conditions": "light or radiation study"}, "[11]": {"tested_on": "Cell membrane", "test": "Induction of mitochondrial membrane potential loss in human HeLa cells assessed as decrease in red fluorescence at 1 uM pre-incubated for 3 hrs followed by incubation at dark condition for 15 hrs by TMRE staining based inverted laser confocal microscopy analysis", "assay_type": "cell membranes", "conditions": "time 18.0 hrs"}, "[12]": {"tested_on": "B16-F0", "test": "Phototoxicity against mouse B16-F0 cells assessed as reduction in cell viability pre-incubated for 3 hrs followed by 10 to 20 mW/cm2 white light irradiation and measured after 25 mins by CCK-8 method", "assay_type": "functional, cell-based", "conditions": "B16F0, light or radiation study"}, "[13]": {"tested_on": "Cell membrane", "test": "Induction of mitochondrial membrane potential loss in human HeLa cells assessed as increase in green fluorescence at 1 uM pre-incubated for 3 hrs followed by 20mW/cm2 white light irradiation for 10 mins and measured for 15 hrs by inverted laser confocal microscopy analysis", "assay_type": "cell membranes", "conditions": "time 1090.0 min"}, "[14]": {"tested_on": "Cell membrane", "test": "Induction of mitochondrial membrane potential loss in human HeLa cells assessed as decrease in red fluorescence at 30 uM pre-incubated for 3 hrs followed by incubation at dark condition for 15 hrs by TMRE staining based inverted laser confocal microscopy analysis", "assay_type": "cell membranes", "conditions": "time 18.0 hrs"}, "[15]": {"tested_on": "HeLa", "test": "Phototoxicity against human HeLa cells assessed as reduction in cell viability pre-incubated for 3 hrs followed by 20mW/cm2 white light irradiation and measured after 30 mins by CCK-8 method", "assay_type": "functional, cell-based", "conditions": "light or radiation study"}, "[16]": {"tested_on": "MDA-MB-231", "test": "Cytotoxicity against human MDA-MB-231 cells assessed as reduction in cell viability incubated for 48 hrs by CCK-8 method", "assay_type": "functional, cell-based", "conditions": "MDA-MB-231, 48 h"}, "[17]": {"tested_on": "HeLa", "test": "Induction of apoptosis in human HeLa cells assessed as early apoptotic cells at 1 uM pre-incubated for 190 mins followed by incubation under dark condition and measured after 6 hrs by Annexin V-FITC/PI staining based flow cytometry analysis relative to control", "assay_type": "functional", "conditions": "time 550 min, 9.167 h"}, "[18]": {"tested_on": "HeLa", "test": "Induction of apoptosis in human HeLa cells assessed as decrease in Bcl-2 expression at 1 uM preincubated for 6 hrs followed by 20 mW/cm2 white light irradiation for 20 mins by Western blot analysis", "assay_type": "functional, cell-based", "conditions": "time 380.0 min"}, "[19]": {"tested_on": "HeLa", "test": "Induction of apoptosis in human HeLa cells assessed as decrease in Bcl-2 expression at 30 uM incubated for 12 hrs under dark condition by Western blot analysis", "assay_type": "functional, cell-based"}, "[20]": {"tested_on": "Cell membrane", "test": "Induction of mitochondrial membrane potential loss in human HeLa cells assessed as decrease in red fluorescence at 1 uM pre-incubated for 3 hrs followed by 20mW/cm2 white light irradiation for 10 mins and measured for 15 hrs by inverted laser confocal microscopy analysis", "assay_type": "cell membranes", "conditions": "time 1090.0 min"}, "[21]": {"test": "Toxicity in C57BL/6J mouse assessed as effect on liver at 1 mg/ml, IT(Intratumoral) measured after 14 days with 150 mW/cm2 white light irradiation for 30 mins by H and E staining based analysis", "assay_type": "tissue-based", "conditions": "in vivo, other, 336 h, time 14 day"}, "[22]": {"test": "Photophysical property of the compound assessed as fluorescence quantum yield", "assay_type": "physicochemical"}, "[23]": {"tested_on": "MCF7", "test": "Cytotoxicity against human MCF7 cells assessed as reduction in cell viability incubated for 48 hrs by CCK-8 method", "assay_type": "functional, cell-based", "conditions": "MCF7, 48 h"}, "[24]": {"tested_on": "HeLa", "test": "Induction of apoptosis in human HeLa cells assessed as late apoptotic cells at 30 uM pre-incubated for 3 hrs followed by white light irradiation for 10 mins and measured after 6 hrs by Annexin V-FITC/PI staining based flow cytometry analysis relative to control", "assay_type": "functional", "conditions": "time 550 min, 9.167 h"}, "[25]": {"test": "Selectivity index, ratio of IC50 for human HeLa cells assessed as reduction in cell viability incubated for 3 hrs under dark condition to IC50 for human HeLa cells assessed as reduction in cell viability pre-incubated for 3 hrs followed by 20mW/cm2 white light irradiation and measured after 30 mins"}, "[26]": {"tested_on": "HeLa", "test": "Phototoxicity against human HeLa cells assessed as reduction in cell viability pre-incubated for 3 hrs followed by 20mW/cm2 white light irradiation and measured after 10 mins by CCK-8 method", "assay_type": "functional, cell-based", "conditions": "light or radiation study"}, "[27]": {"test": "Toxicity in C57BL/6J mouse assessed as effect on lung at 1 mg/ml, IT(Intratumoral) measured after 14 days with 150 mW/cm2 white light irradiation for 30 mins by H and E staining based analysis", "assay_type": "tissue-based", "conditions": "in vivo, other, 336 h, time 14 day"}, "[28]": {"tested_on": "HeLa", "test": "Induction of apoptosis in human HeLa cells assessed as increase in caspase-3 expression at 1 uM preincubated for 6 hrs followed by 20 mW/cm2 white light irradiation for 20 mins by Western blot analysis", "assay_type": "functional, cell-based", "conditions": "time 380.0 min"}, "[29]": {"tested_on": "HeLa", "test": "Induction of apoptosis in human HeLa cells assessed as increase in caspase-3 expression at 30 uM incubated for 12 hrs under dark condition by Western blot analysis", "assay_type": "functional, cell-based"}, "[30]": {"tested_on": "HeLa", "test": "Induction of apoptosis in human HeLa cells assessed as late apoptotic cells at 30 uM pre-incubated for 190 mins followed by incubation under dark condition and measured after 6 hrs by Annexin V-FITC/PI staining based flow cytometry analysis relative to control", "assay_type": "functional", "conditions": "time 550 min, 9.167 h"}, "[31]": {"tested_on": "HeLa", "test": "Induction of apoptosis in human HeLa cells assessed as late apoptotic cells at 1 uM pre-incubated for 3 hrs followed by white light irradiation for 10 mins and measured after 6 hrs by Annexin V-FITC/PI staining based flow cytometry analysis relative to control", "assay_type": "functional", "conditions": "time 550 min, 9.167 h"}}, "note": "Calls of active or inactive are those of the source. No cut-off for these calls is given here.", "data": [{"smiles": "C=C(C)[C@@H]1CC[C@]2(C(=O)OCCCC[n+]3ccc(-c4ccc(N(c5ccccc5)c5ccccc5)c5nsnc45)cc3)CC[C@]3(C)[C@H](CC[C@@H]4[C@@]5(C)CC[C@H](O)C(C)(C)[C@@H]5CC[C@]43C)[C@@H]12.[Br-]", "values": [{"measurement": "Activity", "setting": "[1]", "result": "Active"}, {"measurement": "Activity", "setting": "[2]", "result": "Active"}, {"measurement": "Survival", "setting": "[3]", "result": "<5", "unit": "%"}, {"measurement": "viability at 10 µM", "setting": "[4]", "result": "> 95", "unit": "%"}, {"measurement": "Activity", "setting": "[5]", "result": "inactive"}, {"measurement": "Activity", "setting": "[6]", "result": "Non-Toxic"}, {"measurement": "IC50", "setting": "[7]", "result": 630, "unit": "nM"}, {"measurement": "Activity", "setting": "[8]", "result": "Active"}, {"measurement": "Activity", "setting": "[9]", "result": "Dose-Dependent Effect"}, {"measurement": "IC50", "setting": "[10]", "result": 25000, "unit": "nM"}, {"measurement": "Activity", "setting": "[11]", "result": "inactive"}, {"measurement": "IC50", "setting": "[12]", "result": 490, "unit": "nM"}, {"measurement": "Activity", "setting": "[13]", "result": "Active"}, {"measurement": "Activity", "setting": "[14]", "result": "Active"}, {"measurement": "IC50", "setting": "[15]", "result": 200, "unit": "nM"}, {"measurement": "IC50", "setting": "[16]", "result": 21900, "unit": "nM"}, {"measurement": "Activity", "setting": "[17]", "result": 0.61, "unit": "%"}, {"measurement": "Activity", "setting": "[18]", "result": "Active"}, {"measurement": "Activity", "setting": "[19]", "result": "Active"}, {"measurement": "Activity", "setting": "[20]", "result": "Active"}, {"measurement": "Activity", "setting": "[21]", "result": "Non-Toxic"}, {"measurement": "Activity", "setting": "[22]", "result": 3.98, "unit": "%"}, {"measurement": "IC50", "setting": "[23]", "result": "> 30000", "unit": "nM"}, {"measurement": "Activity", "setting": "[24]", "result": 22.32, "unit": "%"}, {"measurement": "Ratio IC50", "setting": "[25]", "result": 125.66}, {"measurement": "IC50", "setting": "[26]", "result": 1150, "unit": "nM"}, {"measurement": "Activity", "setting": "[27]", "result": "Non-Toxic"}, {"measurement": "Activity", "setting": "[28]", "result": "Active"}, {"measurement": "Activity", "setting": "[29]", "result": "Active"}, {"measurement": "Activity", "setting": "[30]", "result": 23.87, "unit": "%"}, {"measurement": "Activity", "setting": "[31]", "result": 0.97, "unit": "%"}]}]}
